Read-outs that look alike come from different tables or passages of the source.
How the values were obtained:
Assay in all cases: cells
Colo320 = type: cell-based
HeLa cells = type: cell-based; details: read-out: CellCycle G2/M
[1] = test system: HCT116 cells treated with a GSK3β inhibitor; type: cell-based
RKO = type: cell-based; details: read-out: Basal_Viability ATP RKO
HCT116 = type: cell-based
SW480 = type: cell-based
INS-1E cells = type: cell-based, rat
DLD-1 = type: cell-based
SNU-C1 = type: cell-based
NCI-H716 cells = type: cell-based, Human
HT-29 = type: cell-based
[2] = test system: nuclear β-catenin in C2C12 cells; type: cell-based
[3] = test system: endothelial tube formation in co-cultures of ECFCs and ADSCs treated with VEGF; type: cell-based, human
[4] = Homo sapiens, COLO 320, read-out: Basal_Viability ATP Colo 320
[5] = Homo sapiens, HCT-116, read-out: GSK3b inh pretreated_Viability ATP HCT116
[6] = Homo sapiens, HCT-116, read-out: Basal_Viability ATP HCT116
[7] = Homo sapiens, SW480, read-out: Basal_Viability ATP SW480
[8] = Rattus norvegicus, INS-1E, read-out: Insulin Secretion
[9] = Homo sapiens, DLD-1, read-out: Basal_Viability ATP DLD-1
[10] = Homo sapiens, SNU-C1, read-out: Basal_Viability ATP SNU-C1
[11] = Homo sapiens, NCI-H716, read-out: GLP 1 Secretion
[12] = Homo sapiens, HT-29, read-out: Basal_Viability ATP HT-29
[13] = Mus musculus, C2C12, read-out: Wnt Pathway
[14] = Homo sapiens, read-out: Anti-Angiogenesis
[15] = Homo sapiens, basal, Colo 320, read-out: Basal_Viability ATP Colo 320
[16] = Homo sapiens, HeLa, S2 Table, HeLa, 20 = no response at highest concentration
[17] = Homo sapiens, HCT-116, HCT116 pretreated with GSK3b inhibitor, read-out: GSK3b inh pretreated_Viability ATP HCT116
[18] = Homo sapiens, HCT-116, basal, HCT116, read-out: Basal_Viability ATP HCT116
[19] = Rattus norvegicus, INS-1E; read-out: Insulin Secretion
[20] = Homo sapiens, NCI-H716; read-out: GLP 1 Secretion
[21] = Homo sapiens, basal, HT-29, read-out: Basal_Viability ATP HT-29
[22] = Homo sapiens; read-out: Anti-Angiogenesis

With `O=Cc1ccc(O)c(O)c1O` [2,3,4-Trihydroxybenzaldehyde] the IC50 (Colo320; [4]) was 9.08 µM, the EC50 (HeLa cells; Homo sapiens, HeLa) was > 10 µM and the IC50 [1, 5] was 0.141 µM. The IC50 (RKO; Homo sapiens, RKO) was 6.23 µM, the IC50 (HCT116; [6]) was > 20 µM and the IC50 (SW480; [7]) was 11.3 µM. The EC50 (INS-1E cells; [8]) was > 10 µM, the IC50 (DLD-1; [9]) was > 20 µM and the IC50 (SNU-C1; [10]) was > 20 µM. For the same molecule, the EC50 (NCI-H716 cells; [11]) was > 10 µM, the IC50 (HT-29; [12]) was > 20 µM and the EC50 [2, 13] was > 10 µM. For the same molecule, the IC50 [3, 14] was > 10 µM.

For `Oc1ccc([C@@H]2CNCc3c2ccc(O)c3O)cc1O` [Zelandopam], the IC50 (Colo320; read-out: Basal_Viability ATP Colo 320) was 0.466 µM, the EC50 (HeLa cells) was > 10 µM and the IC50 ([1]; read-out: GSK3b inh pretreated_Viability ATP HCT116) was 0.188 µM. The IC50 (RKO) was 0.0332 µM, the IC50 (HCT116; read-out: Basal_Viability ATP HCT116) was > 20 µM and the IC50 (SW480; read-out: Basal_Viability ATP SW480) was > 20 µM. The EC50 (INS-1E cells; read-out: Insulin Secretion) was > 10 µM, the IC50 (DLD-1; read-out: Basal_Viability ATP DLD-1) was > 20 µM and the IC50 (SNU-C1; read-out: Basal_Viability ATP SNU-C1) was > 20 µM. The EC50 (NCI-H716 cells; read-out: GLP 1 Secretion) was 5.95 µM, the IC50 (HT-29; read-out: Basal_Viability ATP HT-29) was > 20 µM and the EC50 ([2]; read-out: Wnt Pathway) was > 10 µM. For the same molecule, the IC50 ([3]; read-out: Anti-Angiogenesis) was > 10 µM.

With `CO[C@@]12[C@H](COC(N)=O)C3=C(C(=O)C(C)=C(N)C3=O)N1C[C@@H]1N[C@@H]12` [Mitomycin] the IC50 (Colo320; [4]) was 12.6 µM, the EC50 (HeLa cells; Homo sapiens, HeLa) was > 10 µM and the IC50 [1, 5] was > 20 µM. The IC50 (RKO; Homo sapiens, RKO) was 0.995 µM, the IC50 (HCT116; [6]) was 13.6 µM and the IC50 (SW480; [7]) was 12.1 µM. For the same molecule, the EC50 (INS-1E cells; [8]) was > 10 µM, the IC50 (DLD-1; [9]) was 5.63 µM and the IC50 (SNU-C1; [10]) was 8.13 µM. For the same molecule, the EC50 (NCI-H716 cells; [11]) was > 10 µM, the IC50 (HT-29; [12]) was 2.57 µM and the EC50 [2, 13] was > 10 µM. For the same molecule, the IC50 [3, 14] was 0.102 µM.

`COc1cccc2c1C(=O)c1c(O)c3c(c(O)c1C2=O)C[C@@](O)(C(=O)CO)C[C@@H]3O[C@H]1C[C@H](N)[C@H](O[C@@H]2CCCCO2)[C@H](C)O1` [pirarubicin] gave an IC50 (Colo320; [15]) of 2.01 µM, an EC50 (HeLa cells; [16]) of 0.0806 µM and an IC50 [1, 17] of 1.28 µM. For the same molecule, the IC50 (RKO; Homo sapiens, basal, RKO) was 1.01 µM, the IC50 (HCT116; [18]) was 0.911 µM and the IC50 (SW480; [7]) was 7.82 µM. The EC50 (INS-1E cells; [19]) was > 10 µM, the IC50 (DLD-1; [9]) was 8.95 µM and the IC50 (SNU-C1; [10]) was 9.26 µM. The EC50 (NCI-H716 cells; [20]) was > 10 µM, the IC50 (HT-29; [21]) was > 20 µM and the EC50 ([2]; Mus musculus, C2C12; read-out: Wnt Pathway) was 3.95 µM. For the same molecule, the IC50 [3, 22] was 0.0063 µM.

For `O=[N+]([O-])c1ccc(Oc2ccc(N=C=S)cc2)cc1` [Cantrodifene], the IC50 (Colo320; basal, read-out: Basal_Viability ATP Colo 320) was 1.46 µM, the EC50 (HeLa cells; IC50 / EC50, HeLa) was > 10 µM and the IC50 ([1]; GSK3b inhibitor pretreated, read-out: GSK3b inh pretreated_Viability ATP HCT116) was 1.47 µM. The IC50 (RKO; basal) was 2.34 µM, the IC50 (HCT116; basal, read-out: Basal_Viability ATP HCT116) was 2.77 µM and the IC50 (SW480; basal, read-out: Basal_Viability ATP SW480) was 1.63 µM. For the same molecule, the EC50 (INS-1E cells; IC50 / EC50; INS-1E; read-out: Insulin Secretion) was > 10 µM, the IC50 (DLD-1; basal, read-out: Basal_Viability ATP DLD-1) was 2.1 µM and the IC50 (SNU-C1; basal, read-out: Basal_Viability ATP SNU-C1) was 4.33 µM. The EC50 (NCI-H716 cells; IC50 / EC50; NCI-H716; read-out: GLP 1 Secretion) was > 10 µM, the IC50 (HT-29; basal, read-out: Basal_Viability ATP HT-29) was 1.07 µM and the EC50 ([2]; IC50 / EC50; C2C12 beta-catenin translocation; read-out: Wnt Pathway) was > 10 µM. The IC50 ([3]; IC50 / EC50; endothelial tube area, ADSC/ECFC co-culture; read-out: Anti-Angiogenesis) was 3.72 µM.

For `O=C(Nc1ccc(Br)cc1)c1cc(Br)cc(Br)c1O` [Tribromsalan], the IC50 (Colo320; [15]) was 0.003 µM, the EC50 (HeLa cells; [16]) was > 10 µM and the IC50 [1, 17] was 0.001 µM. For the same molecule, the IC50 (RKO; Homo sapiens, basal, RKO) was 0.003 µM, the IC50 (HCT116; [18]) was 0.003 µM and the IC50 (SW480; Homo sapiens, SW480, basal, SW480, read-out: Basal_Viability ATP SW480) was 0.001 µM. The EC50 (INS-1E cells; [19]) was > 10 µM, the IC50 (DLD-1; Homo sapiens, DLD-1, basal, DLD-1, read-out: Basal_Viability ATP DLD-1) was 0.001 µM and the IC50 (SNU-C1; Homo sapiens, SNU-C1, basal, SNU-C1, read-out: Basal_Viability ATP SNU-C1) was 0.001 µM. The EC50 (NCI-H716 cells; [20]) was > 10 µM, the IC50 (HT-29; [21]) was 0.001 µM and the EC50 ([2]; Mus musculus, C2C12, S2 Table; module primary assay; 20 / 20.1 codes per legend; read-out: Wnt Pathway) was > 10 µM. For the same molecule, the IC50 [3, 22] was 1.81 µM.

Source: publication PMC4503722, “Novel Phenotypic Outcomes Identified for a Public Collection of Approved Drugs from a Publicly Accessible Panel of Assays” (PLoS ONE, 2015)
